Laboratory results published in patent US8871919B2, “RNAi therapeutic for treatment of Hepatitis C infection” (Florida State University Research Foundation, priority 2007, dated 2014).
Entries after “also recorded” stand apart in the source; their conditions may differ.

Columns and labels:
[1] = tested on: GS5 replicon cells; assay: Colony formation assay, puromycin and G418 double selection, GS5 cells; type: cell-based, Hepatitis C virus
[2] = tested on: CyPA; assay: CyPA expression in GS5 cells (Western blot); type: cell-based, human
Description: (§1) A human immunodeficiency virus (HIV)-based lentiviral vector is used to express all of the short hairpin RNAs (shRNAs). […] Target or sense sequences for the other shRNAs are as follows:
(§2) The above sequences may be converted to RNA sequences by changing each thymine (T) to uracil (U). Lentiviral vector production and transduction are performed as described previously (44). Stable cells expressing shRNAs are obtained by selection with 1 μg/ml of puromycin (MP Biomedicals, Solon, Ohio) for 3 weeks.

[3] = tested on: RS2 replicon cells; assay: Colony formation assay, puromycin and G418 double selection, RS2 cells; type: cell-based, Hepatitis C virus
[4] = tested on: RS2 replicon cells; assay: NS5A-GFP expression in RS2 cells by FACS; type: cell-based, Hepatitis C virus
Description: In contrast to the GS5 replicon, RS2 replicates efficiently in the presence of substantial CyPA knock-down (FIG. 1D).

[5] = tested on: CyPA; assay: CyPA expression in RS2 cells (Western blot); type: cell-based, human; details: RS2 cells stably expressing shRNA (FIG. 3B)
Description: as §1, §2

[6] = tested on: Con1 (GT 1b) replicon cells; assay: NS5A expression in Con1 (GT 1b) replicon cells, transient transduction; type: cell-based, Hepatitis C virus; details: transient transduction (FIG. 4D)
Description: (§3) FIG. 4D is an image of Western blots showing expression of the proteins NS5A, CyPB, and CyPA in H77 (GT 1a) and Con1 (GT 1b) replicon cells transduced with the indicated shRNAs (sh-Luc or sh-A161);

[7] = tested on: GS5 replicon cells; assay: NS5A expression in GS5 replicon cells (Western blot); type: cell-based, Hepatitis C virus; details: for NS5A expression: GS5 cells
[8] = tested on: vesicular stomatitis virus; type: cell-based; details: sh-A159 Huh-7.5 cells (FIG. 5D)
[9] = tested on: Rep1b RNA; details: day 4 vs 7 hours after electroporation (FIG. 2E)
Description: A parallel electroporation of Rep1b RNA into Huh-7.5/sh-Luc cells serves as a positive control, which is set at 100%;
One microgram of replicon RNA is mixed with 9 μg of a pcDNA3.1-based plasmid containing no insert, CyPA cDNA, CyPB cDNA, or CyPC cDNA and used in a standard electroporation (36). RNA is extracted 7 h and 4 days post-electroporation and subjected to quantitative RT-PCR analysis to detect HCV RNA as described previously (See, e.g., Robida, J. M et al., Characterization of hepatitis C virus subgenomic replicon resistance to cyclosporine in vitro, J. Virol., 81:5829-5840 (2007). All the CyP cDNAs are tagged with a Myc epitope at the C terminus, and the CyPA cDNA containing silent mutations in the sh-A159 recognition site is designated CyPA#.

[10] = tested on: GT 1a (H77) subgenomic replicon; assay: Colony formation in stable Huh-7.5 cells electroporated with GT 1a (H77) replicon RNA; type: cell-based, Hepatitis C virus; details: stable Huh-7.5 cells (FIG. 4C)
Description: (§4) FIG. 4C is an image of plates containing stained Huh-7.5 cells transduced with several shRNAs (sh-Luc, sh-A159, sh-B710, or sh-C454) after four weeks following electroporation with one microgram of either H77 (GT 1a) or Con1 (GT 1b) replicons;
(§5) GS5 and RS2 cells contain GT 1b replicons with the GFP gene inserted into the NS5A region. (See, e.g., Moradpour, D. et al., “Insertion of green fluorescent protein into nonstructural protein 5A allows direct visualization of functional hepatitis C virus replication complexes,” J. Virol. 78:7400-7409 (2004); Nelson, H. B. et al., “Effect of cell growth on hepatitis C virus (HCV) replication and a mechanism of cell confluence-based inhibition of HCV RNA and protein expression,” J. Virol. 80:1181-1190 (2006)). Next the effect of CyPA knock-down on replicons without GFP is examined. Both GT 1a and 1b replicons are tested. To this end, stable Huh-7.5 cell lines are established that express the various shRNAs and then challenges them, by electroporation, with in vitro-transcribed GT 1a (H77) and 1b (Con1) subgenomic replicon RNAs. The shRNAs effectively silence the expression of their respective targets in the stable cells as expected (FIGS. 4A and 4B). No defect in morphology or growth rate is detected for any of the stable cell lines, confirming that these CyPs are dispensable for cell survival in vitro.

[11] = tested on: HCVcc/JFH-1; assay: HCVcc/JFH-1 infection of Huh-7.5 cells; type: cell-based, Hepatitis C virus
Description: FIG. 5A is an image of an RNA gel showing HCV IRES RNA levels relative to cellular RNA helicase A (RHA) RNA in total RNA extracts from Huh7.5 cells transduced with several shRNAs (sh-Luc, sh-A159, or sh-B710) following infection with HCVcc/JFH-1 for nine days;
FIG. 5B is a fluorescence microscopy image showing anticore antibody and DAPI (4′,6′-diamidino-2-phenylindole) staining of paraformaldehyde fixed Huh7.5 cells transduced with either sh-Luc or sh-A159 following infection with HCVcc/JFH-1 for nine days;
FIG. 5C is an image of Western blots showing expression of the proteins NS3, GAPDH, and CyPA in total protein extracts from Huh7.5 cells transduced with the indicated shRNAs (sh-Luc or sh-A159) at 0, 9, or 12 days after infection with HCVcc/JFH-1 replicons; […]
Full-length JFH-1 cDNA is provided by Takaji Wakita. Production of infectious HCVcc and infection of Huh-7.5 cells are performed as described previously (See, e.g., Zhong, J. et al., “Robust hepatitis C virus infection in vitro,” Proc. Natl. Acad. Sci. USA, 102:9294-9299 (2005)). Western blotting and immunostaining of infected cells are carried out according to standard methods.

[12] = tested on: H77 (GT 1a) replicon cells; assay: NS5A expression in H77 (GT 1a) replicon cells, transient transduction; type: cell-based, Hepatitis C virus; details: transient transduction (FIG. 4D)
Description: as §3

[13] = tested on: GT 1b (Con1) subgenomic replicon; assay: Colony formation in stable Huh-7.5 cells electroporated with GT 1b (Con1) replicon RNA; type: cell-based, Hepatitis C virus; details: stable Huh-7.5 cells (FIG. 4C)
Description: as §4, §5

[14] = tested on: RS2 replicon cells; assay: NS5A expression in CsA-resistant RS2 replicon cells (Western blot); type: cell-based, Hepatitis C virus; details: lentiviral shRNA, 7 days
[15] = tested on: HCV; details: cited from earlier work
[16] = synthesized siRNA duplex, transient transfection (FIG. 2C)

## sh-A159: shRNA against CyPA; sense sequence nucleotides 159 through 179 of human CyPA cDNA, hairpin UUCAAGAGA (SEQ ID NO: 3) (AAGGGUUCCUGCUUUCACAGAUUCAAGAGAUCUGUGAAAGCAGGAACCCUU)
[1]
  number of double-resistant colonies: significantly lower number
[2]; lentiviral shRNA, 7 days (FIG. 2B)
  CyPA expression: knock down CyPA expression; also recorded: most effective
[3]
  number of double-resistant colonies: not observed
[4]; no selection, 0.5 μg/ml CsA, FACS (FIG. 3C)
  suppression of NS5A-GFP expressing RS2 cells: no significant suppression
[4]; stable RS2 cells, CsA 4 days, FACS (FIG. 3A)
  sensitivity of RS2 replicon to CsA relative to RS2/sh-Luc: six to eight times more sensitive
[5]
  CyPA expression: substantial suppression
[6]
  NS5A expression: inhibitory effect
[7]; lentiviral shRNA, 7 days
  NS5A expression: inhibits NS5A expression; also recorded: most effective
[7]; replicon cells, sh-A159 together with Myc-A# (FIG. 2D)
  NS5A expression with sh-A159-insensitive CyPA cDNA (Myc-A#): partially rescued
[8]
  susceptibility to infection by vesicular stomatitis virus: fully susceptible
[9]
  HCV RNA replication with sh-A159-insensitive CyPA cDNA (Myc-A#): partially rescued
[10]
  ability of replicon RNA to form colonies: completely inhibits
[11]; Huh-7.5, HCVcc/JFH-1, RT-PCR, core staining, NS3 Western blot
  HCV infection of stable shRNA cells: highly refractory to infection
[11]; Huh-7.5 infected with JFH-1 for 10 days, then transduced, NS3 measured 7 days after transduction
  viral replication (NS3 expression) in an existing infection: suppresses viral replication
[12]
  NS5A expression: inhibitory effect
[13]
  ability of replicon RNA to form colonies: completely inhibits

## si-A159: synthesized siRNA duplex form of sh-A159 (sense SEQ ID NO: 2, antisense SEQ ID NO: 4) (sense AAGGGUUCCUGCUUUCACAGA; antisense UCUGUGAAAGCAGGAACCCUU; listed as RNA, chemistry not given here)
[2]; [16]
  CyPA expression: inhibited; also recorded: no more potent than si-A285
[7]; [16]
  NS5A expression: inhibited

## sh-C454: shRNA directed at CyPC, nucleotides 454-474 of human CyPC cDNA (SEQ ID NO: 10) (AAGACTGAAGGTGTGCTGGTA) [reference compound]
[7]; lentiviral shRNA, 7 days
  NS5A expression: no effect
[14]
  NS5A expression: no effect

## alpha-interferon and ribavirin
[15]
  sustained efficacy, share of patients: 40%
